We go through 9 molecules from PubChem BioAssay (NCI).

Assay in all cases: growth of human tumour cells (NCI), 48 h
Experiment [1] deals with COLO 205 colon.
The test system of experiment [2] is PC-3 prostate.
Experiment [3] relates to SF-268 CNS.
For experiment [4], the system named is OVCAR-5 ovarian.
Experiment [5] has as its system SNB-19 CNS.
Experiment [6] relates to MDA-MB-435.
In experiment [7] the test system is OVCAR-4 ovarian.
Experiment [8] has as its system HCT-15 colon.
The test system of experiment [9] is SK-OV-3 ovarian.
The test system of experiment [10] is K-562 leukemia.

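Cells were grown in 96-well plates and exposed to each compound for 48 hours at five concentrations; endpoints were interpolated linearly between bracketing concentrations, or set to the highest concentration if not reached. The concentration for 50% growth inhibition is given as GI50. TGI is the concentration that stops growth completely.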 A value given as a limit tells only on which side of the number the result lay.

Consider `COC(C)C(O)(C(=O)OCC1=CCN2CCC(O)C12)C(C)(C)O` (centres undefined), for which the TGI in experiment [1], in [2], in [3], in experiment [4], in experiment [5] and in experiment [6] was greater than 100 µM throughout. For the same molecule, the TGI in [7], in experiment [8] and in experiment [9] was greater than 100 µM each time.
Regarding `O=C(Nc1cccc(C(F)(F)F)c1)Oc1ccc(Cl)c2cccnc12`, the GI50 was 2.48 µM in experiment [1]; 0.607 µM in experiment [2]; 1.36 µM in [3]; 3.6 µM in [4]; 2.52 µM in experiment [5]; 1.89 µM in [6]. The GI50 in experiment [7] was 0.831 µM; in experiment [8], 0.584 µM; in experiment [10], 1.02 µM; in [9], 6.64 µM. The TGI was 6.39 µM in experiment [1]; 14.2 µM in experiment [2]; 16.6 µM in experiment [3]; 18 µM in [4]; greater than 32.8 µM in experiment [5]; 9.5 µM in [6]. In addition, the TGI in experiment [7] is 14.8 µM; in [8] it was 9.19 µM; in experiment [10], greater than 100 µM; in [9], 29.3 µM.
`C[C@@H]1CC[C@@]2(NC1)O[C@H]1C[C@H]3[C@@H]4CC[C@H]5C[C@@H](O)CC[C@]5(C)[C@H]4CC[C@]3(C)[C@H]1[C@@H]2C`: the TGI in [1], in experiment [2], in experiment [3], in [4], in experiment [5] and in [6] was greater than 100 µM each time. Besides, the TGI in experiment [7] was 71.7 µM; in experiment [8], greater than 100 µM; in experiment [10] it was greater than 100 µM; in experiment [9] it was greater than 100 µM.
`COc1ccc(-c2cc(=O)c3c(O)c(OC)c(OC)c(OC)c3o2)cc1`: the TGI in [1], in experiment [2], in [3], in experiment [4], in experiment [5] and in experiment [6] was greater than 100 µM each time. Moreover, the TGI in experiment [7], in experiment [8], in [10] and in experiment [9] was greater than 100 µM in each case.
As to `C=C(C)[C@@H]1CC[C@]2(C(=O)NS(=O)(=O)c3ccccc3)CC[C@]3(C)[C@H](CC[C@@H]4[C@@]5(C)CC[C@H](OC(=O)NS(=O)(=O)c6ccccc6)C(C)(C)[C@@H]5CC[C@]43C)[C@@H]12`, the GI50 in experiment [1] was 1.54 µM; in experiment [2] it was 2.11 µM; in experiment [3], 3.03 µM; in experiment [4], 3.02 µM; in experiment [5], 3.42 µM; in [6] it was 1.77 µM. Besides, the GI50 in experiment [7] is 3.04 µM; in [8] it was 1.62 µM; in [10] it was 1.41 µM; in experiment [9] it was 2.6 µM. Besides, the TGI in experiment [1] amounted to 3.08 µM; in experiment [2] it was 20.6 µM; in [3], 32.1 µM; in experiment [4], 11.8 µM; in experiment [5], 18.2 µM; in experiment [6] it was 4.89 µM. For the same molecule, the TGI in [7] was 51.4 µM; in experiment [8] it was 4.65 µM; in experiment [10] it was 17.3 µM; in experiment [9], 8.22 µM.
`Cc1cc(O)c(-c2ccc([C@@H](C)CN(C)C)cc2)c2c1[nH]c(=O)c1sccc12`: the GI50 was 2.18 µM in [1]; 0.667 µM in experiment [2]; 1.14 µM in [3]; 2.25 µM in [4]; 0.724 µM in [5]; 0.981 µM in experiment [6]. Further, the GI50 in experiment [7] is 0.769 µM; in [8], 1.42 µM; in experiment [10], 0.482 µM; in [9], 0.332 µM. Further, the TGI in experiment [1] amounted to 5.2 µM; in experiment [2], 18 µM; in experiment [3], 14.8 µM; in experiment [4], 17.5 µM; in experiment [5], 23.3 µM; in experiment [6] it was 15.2 µM. The TGI is 10.6 µM in [7], 31.3 µM in experiment [8], greater than 60.5 µM in experiment [10] and 3.65 µM in experiment [9].
Turning to `CCn1c2ccccc2c2cc(C(=O)c3ccc(C)c4ccccc34)ccc21`, the GI50 in experiment [1] was 0.249 µM; in [2] it was 0.392 µM; in [3], 0.877 µM; in experiment [4] it was 0.62 µM; in experiment [5] it was 0.438 µM; in experiment [6] it was 0.161 µM. Further, the GI50 in experiment [7] was 3.32 µM; in experiment [8], 0.329 µM; in experiment [10], 0.338 µM; in experiment [9], 0.553 µM. In addition, the TGI in [1] is 0.728 µM; in experiment [2], greater than 100 µM; in experiment [3], greater than 100 µM; in experiment [4] it was greater than 100 µM; in [5] it was greater than 100 µM; in experiment [6] it was 0.378 µM. Further, the TGI in experiment [7], in [8], in experiment [10] and in experiment [9] was greater than 100 µM in each case.
Take `CS(=O)(=O)N(c1cc(-c2ccc3ncnc(Nc4ccc(F)c(Cl)c4)c3c2)cnc1Cl)S(C)(=O)=O`: the GI50 is 1.32 µM in experiment [1]; 1.1 µM in [2]; 0.868 µM in [3]; 0.795 µM in experiment [4]; 0.897 µM in experiment [5]; 1.83 µM in [6]. In addition, the GI50 in [7] is 2.33 µM; in experiment [8] it was 0.945 µM; in experiment [10] it was 2.45 µM; in experiment [9], 0.6 µM. Besides, the TGI worked out at 5.93 µM in [1]; 7.9 µM in [2]; 7.61 µM in [3]; 10.2 µM in [4]; 9.9 µM in [5]; 17.2 µM in experiment [6]. Further, the TGI in experiment [7] is 19.4 µM; in experiment [8] it was 13.9 µM; in experiment [10] it was greater than 100 µM; in [9], 4.31 µM.
For the molecule `Nc1cccc2c1C(=O)c1cccc(NC(=O)c3ccccc3)c1C2=O`, the GI50 was 0.354 µM in experiment [1]; 0.374 µM in experiment [2]; 0.576 µM in experiment [3]; 1.92 µM in [4]; 0.591 µM in [5]; 0.0364 µM in experiment [6]. For the same molecule, the GI50 is 5.07 µM in [7], 0.448 µM in experiment [8], 0.133 µM in experiment [10] and 0.425 µM in experiment [9]. The TGI in experiment [1] is 6.74 µM; in [2], greater than 100 µM; in experiment [3] it was greater than 100 µM; in [4], greater than 100 µM; in experiment [5] it was greater than 100 µM; in experiment [6] it was 0.414 µM. In addition, the TGI in [7] was greater than 100 µM; in [8], greater than 100 µM; in experiment [10], greater than 100 µM; in experiment [9] it was 9.24 µM.
